Among the data in ChEMBL document CHEMBL5223128, “Biphenyl-based small molecule inhibitors: Novel cancer immunotherapeutic agents targeting PD-1/PD-L1 interaction” (Bioorg Med Chem, 2022) are IC50 values, retold here.

Test [1] addresses T1, Programmed cell death protein 1/Programmed cell death 1 ligand 1 (Homo sapiens, UniProt Q9NZQ7). As to the kind of experiment: Inhibition of human PD-1/PDL1 protein-protein interaction by HTRF assay. In kind it is protein-complex assay. A general note: TR-FRET usually uses a lanthanide donor and a delayed reading to cut background.
Test [2] concerns the target T1, Programmed cell death protein 1/Programmed cell death 1 ligand 1. Briefly: Inhibition of human PD-1/PDL1 protein-protein interaction. In kind it is protein-complex assay.

T1 sequence (Q15116 whole entry): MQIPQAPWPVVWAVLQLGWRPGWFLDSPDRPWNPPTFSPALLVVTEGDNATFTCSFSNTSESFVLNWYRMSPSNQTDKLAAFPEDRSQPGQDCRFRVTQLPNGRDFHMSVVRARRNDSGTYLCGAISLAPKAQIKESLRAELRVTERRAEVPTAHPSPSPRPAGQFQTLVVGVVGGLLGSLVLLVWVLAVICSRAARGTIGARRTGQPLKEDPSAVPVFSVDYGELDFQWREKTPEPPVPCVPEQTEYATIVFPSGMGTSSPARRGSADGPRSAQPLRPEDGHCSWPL
T1 sequence (Q9NZQ7 whole entry): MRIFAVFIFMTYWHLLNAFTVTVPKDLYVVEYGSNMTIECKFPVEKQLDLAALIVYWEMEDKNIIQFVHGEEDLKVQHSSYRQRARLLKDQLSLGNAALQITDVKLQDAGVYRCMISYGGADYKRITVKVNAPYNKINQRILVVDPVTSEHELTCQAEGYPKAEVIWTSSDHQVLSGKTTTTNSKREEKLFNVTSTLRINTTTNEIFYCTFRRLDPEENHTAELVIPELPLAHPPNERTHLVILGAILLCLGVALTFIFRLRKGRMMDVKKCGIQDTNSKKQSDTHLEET

On to `N#Cc1c(NC(=O)c2nc3c(s2)CNCC3)cccc1-c1ccc2c(c1)OCC2`, for which, in test [1], the 50% inhibitory concentration (IC50) (usually the concentration at which inhibition is half-maximal) is at most 100 nM. On the same count and under the same terms, with `Cc1c(-c2ccccc2)cccc1-n1cc2c(n1)CNCC2` the figure was at most 100 nM; with `Cc1cc(C(=O)Nc2cccc(-c3ccccc3)c2C)ncc1CNCCO`, at most 10 nM; with `COc1cc2oc(-c3cccc(-c4ccccc4)c3C)nc2cc1CNCCO`, at most 10 nM. `N#Cc1c(NC(=O)c2ccc(CNCCO)cn2)cccc1-c1ccccc1` yielded an IC50 in test [1] of at most 10 nM.

`Cc1c(-c2ccccc2)cccc1-c1nc2c(s1)CNCC2` displayed an IC50 in test [1] of at most 100 nM. The same measure, in the same setting: with `Cc1c(-c2ccccc2)cccc1-c1nc2cc(CNCCO)ccc2o1` the figure was at most 10 nM; with `Cc1c(-c2ccccc2)cccc1-c1cn2nc(CNCCO)cnc2n1`, at most 100 nM; with `Cc1c(Nc2nccc3c(CN4CCCCC4C(=O)O)ccnc23)cccc1-c1ccccc1` (stereo not drawn), at most 10 nM. The same measure, in the same setting: with `Cc1cc(C(=O)Nc2cccc(-c3ccccc3)c2C)ncc1CN1CCCC[C@H]1C(=O)O` the figure was at most 10 nM. For the molecule `N#Cc1c(NC(=O)c2nc3c(s2)CNCC3)cccc1-c1ccc2c(c1)OCCO2`, the half-maximal inhibitory concentration (IC50) in test [1] is at most 100 nM.

As to `Cc1c(-c2ccccc2)cccc1-c1nc2c(o1)CNCC2`, the half-maximal inhibitory concentration (IC50) in test [1] is at most 100 nM.

As for `Cc1c(-c2ccccc2)cccc1-c1nc2cc(CN3CCCC[C@H]3C(=O)O)c(OCCCC#N)cc2o1`, in test [1], the IC50 is at most 10 nM. Still for that read-out and setting: with `Cc1c(NC(=O)c2nc3c(s2)CNCC3)cccc1-c1cccc2[nH]ncc12` the figure was at most 100 nM; with `Cc1c(NC(=O)c2nc3c(s2)CNCC3)cccc1-c1cccc2c1cnn2C`, at most 100 nM. Regarding `COc1cc(OCc2cccc(-c3ccccc3)c2C)cc(OC)c1CCCC1CC(=O)N1` (stereo not drawn), the IC50 in test [2] is 18 nM; in test [1], 22 nM. In test [1], `Cc1c(NC(=O)c2nc3c(s2)CNCC3)cccc1-c1ccccc1` returned an IC50 of at most 100 nM. The same measure, in the same setting: with `Cc1c(C2=CCCCC2)cccc1-c1nc2c(s1)CNCC2` the figure was at most 100 nM; with `Cn1c(C(=O)Nc2cccc(-c3ccc4c(c3)OCCO4)c2C#N)nc2c1CCNC2`, at most 100 nM; with `Cc1c(Nc2nccc3cc(CNCCO)cnc23)cccc1C1=CCCCC1`, at most 10 nM.

On to `Cc1c(-c2ccccc2)cccc1-c1nc2ccc(CNCCO)cn2n1`, for which the half-maximal inhibitory concentration (IC50) in test [1] was at most 100 nM. The same measure, in the same setting: with `COc1cccc(-c2cccc(NC(=O)c3nc4c(s3)CNCC4)c2C)c1F` the figure was at most 100 nM.

`N#Cc1c(NC(=O)c2nc3c(s2)CNCC3)cccc1C1=CCCCC1` registered a half-maximal inhibitory concentration (IC50) in test [1] of at most 100 nM. The same measure, in the same setting: with `Cn1cnc2c(-c3cccc(NC(=O)c4ccc(CNCCO)cn4)c3C#N)cccc21` the figure was at most 10 nM; with `N#Cc1c(Nc2nccc3cc(CNCCO)cnc23)cccc1-c1ccccc1`, at most 10 nM; with `Cc1c(-c2ccccc2)cccc1-c1nc2c(o1)CCNC2`, at most 100 nM. Same read-out and setting: for `Cc1c(NC(=O)c2nc3c(s2)CNCC3)cc(F)cc1-c1ccc2c(c1)OCCO2` the value was at most 100 nM; for `COc1cccc(-c2cccc(NC(=O)c3nc4c(s3)CNCC4)c2Cl)c1F`, at most 100 nM; for `N#Cc1c(NC(=O)c2nc3c(s2)CNCC3)cccc1-c1c(F)cccc1F`, at most 100 nM. Still for that read-out and setting: with `CCOc1cccc(-c2cccc(-c3nc4c(s3)CNCC4)c2C)c1` the figure was at most 100 nM; with `O=C(Nc1cccc(-c2ccc3c(c2)OCCO3)c1Cl)c1nc2c(s1)CNCC2`, at most 100 nM; with `Cc1c(-c2ccccc2)cccc1-c1nc2cc(CNCCO)c(OCC#N)cc2o1`, at most 10 nM.

As for `N#Cc1c(Nc2nccc3cc(CNCCO)cnc23)cccc1-c1ccc2c(c1)OCCO2`, the IC50 in test [1] is at most 10 nM.

`Cc1c(-c2cccc(C(N)=O)c2)cccc1-c1nc2c(s1)CNCC2`: the concentration for half-maximal inhibition (IC50) in test [1] is at most 100 nM. Turning to `COc1cc(OC)c(F)c(-c2cccc(-c3nc4c(s3)CNCC4)c2C)c1F`, the IC50 in test [1] is at most 100 nM. On the same count and under the same terms, with `Cc1c(-c2ccccc2)ccnc1-c1nc2c(s1)CNCC2` the figure was at most 100 nM; with `Cc1c(-c2ccccc2)cccc1-c1nc2cc(CNCCO)c(OCCN3CCOCC3)cc2o1`, at most 10 nM; with `Cc1cc(C(=O)Nc2cc(F)cc(-c3ccc4c(c3)OCCO4)c2C)ncc1CNCCO`, at most 10 nM. Same read-out and setting: for `COc1cccc(-c2cccc(NC(=O)c3cn4c(n3)CNCC4)c2C#N)c1F` the value was at most 100 nM; for `Cc1c(Nc2nccc3cc(CNCCO)cnc23)cccc1-c1ccc2c(c1)OCCO2`, at most 10 nM; for `N#Cc1c(NC(=O)c2nc3c(s2)CNCC3)cccc1-c1ccccc1`, at most 100 nM.

For `N#Cc1c(Nc2nccc3nc(CNCCO)cnc23)cccc1C1=CCCCC1`, the IC50 in test [1] is at most 10 nM. On the same count and under the same terms, with `Cc1c(-c2ccccc2)cccc1-c1nc2cc(CNCCO)cc(C)c2o1` the figure was at most 10 nM. The same measure, in the same setting: for `Cc1c(NC(=O)c2nc3c(s2)CN(CC(=O)O)CC3)cccc1-c1ccccc1` the value was at most 100 nM; for `Cc1c(-c2ccc3c(c2)OCCO3)cccc1-c1nc2cc(CNCCO)cc(C)c2o1`, at most 10 nM; for `Cn1ncc2c(-c3cccc(NC(=O)c4nc5c(s4)CNCC5)c3Cl)cccc21`, at most 100 nM. In test [1], `N#Cc1c(NC(=O)c2ccc(CNCCO)cn2)cccc1C1=CCCCC1` returned an IC50 of at most 10 nM.

Take `N#Cc1c(-c2ccc3c(c2)OCCO3)cccc1-c1nc2c(Cl)cc(CNCCO)cn2n1`: the IC50 in test [1] is at most 100 nM. With `N#Cc1c(NC(=O)c2ccc(CNCCO)cn2)cccc1-c1ccc2c(c1)OCCO2`, the concentration for half-maximal inhibition (IC50) in test [1] was at most 10 nM. Still for that read-out and setting: with `Cc1cc(CNCCO)cc2nc(-c3cccc(-c4ccc5c(c4)OCCO5)c3C#N)oc12` the figure was at most 10 nM. For the molecule `N#CCc1cc(CNCCO)cn2nc(-c3cccc(-c4ccc5c(c4)OCCO5)c3C#N)nc12`, the IC50 in test [1] is at most 100 nM. Still for that read-out and setting: for `Cc1c(-c2ccccc2)cccc1-c1cn2cc(CNCCO)ncc2n1` the value was at most 100 nM; for `Cc1c(-c2ccccc2)cccc1-c1nc2c(s1)CN(CCCC(=O)O)CC2`, at most 100 nM; for `Cc1c(-c2ccccc2)cccc1-c1nc2c(s1)CN(CCO)CC2`, at most 100 nM. On the same count and under the same terms, with `Cc1c(NC(=O)c2nc3c(s2)CNCC3)cccc1-c1ccc2c(c1)OCCO2` the figure was at most 100 nM; with `COc1cccc(-c2ccnc(-c3nc4c(s3)CNCC4)c2C)c1`, at most 100 nM; with `COc1cccc(-c2cccc(NC(=O)c3nc4c(s3)CNCC4)c2C#N)c1F`, at most 100 nM. The same measure, in the same setting: with `N#Cc1c(-c2ccc3c(c2)OCCO3)cccc1-c1nc2c(C#N)cc(CNCCO)cn2n1` the figure was at most 100 nM; with `COc1cccc(-c2cccc(-c3nc4c(s3)CNCC4)c2C)c1`, at most 100 nM. On to `COc1cc(F)cc(-c2cccc(NC(=O)c3nc4c(s3)CNCC4)c2C#N)c1`, for which, in test [1], the IC50 is at most 100 nM.

Molecule `Cc1c(-c2ccc3c(c2)OCCO3)ccnc1-c1nc2c(s1)CNCC2` gave an IC50 in test [1] of at most 100 nM.

Molecule `Cc1c(-c2cccc(CC(N)=O)c2)cccc1-c1nc2c(s1)CNCC2` displayed an IC50 in test [1] of at most 100 nM. Still for that read-out and setting: for `Cn1c(C(=O)Nc2cccc(-c3ccc4c(c3)OCCO4)c2C#N)nc2c1CCN(CCO)C2` the value was at most 100 nM; for `O=C(Nc1cccc(-c2ccccc2)c1Cl)c1nc2c(s1)CNCC2`, at most 100 nM; for `Cc1c(-c2ccccc2)cccc1-c1nc2c(CCCC#N)cc(CNCCO)cn2n1`, at most 100 nM. Still for that read-out and setting: with `COc1c(CNCCO)cnc2c(Nc3cccc(-c4ccccc4)c3C)nccc12` the figure was at most 10 nM; with `N#Cc1c(NC(=O)c2nc3c(s2)CNCC3)cccc1-c1ccccc1F`, at most 100 nM. Turning to `Cc1c(Nc2nccc3cc(CNCCO)cnc23)cccc1-c1ccccc1`, in test [1], the IC50 was at most 10 nM. Same read-out and setting: with `Cc1c(-c2nc3cc(CNCCO)c(OCC#N)cc3o2)cccc1-c1ccccc1F` the figure was at most 10 nM; with `COc1cccc(-c2cccc(NC(=O)c3nc4c(n3C)CCNC4)c2C)c1F`, at most 100 nM. The same measure, in the same setting: for `Cc1c(-c2ccccc2)cccc1-c1nc2cc(CN3CCCC[C@H]3C(=O)O)c(OCC#N)cc2o1` the value was at most 10 nM. Still for that read-out and setting: for `COc1cc(OC)cc(-c2cccc(-c3nc4c(s3)CNCC4)c2C)c1` the value was at most 100 nM; for `Cc1c(-c2ccccc2)cccc1-c1nc2cc(CNCCO)nc(C)n2n1`, at most 100 nM. As to `Cc1c(Nc2nccc3c(CNCCO)ccnc23)cccc1-c1ccc2c(c1)OCCO2`, the IC50 in test [1] is at most 10 nM. On the same count and under the same terms, for `Cc1c(-c2ccccc2)ccnc1-c1nc2c(s1)CN(C1CCC(C(=O)O)CC1)CC2` (stereo not drawn) the value was at most 100 nM; for `Cc1c(-c2nc3c(s2)CNCC3)cccc1-c1cccc2c1cnn2C`, at most 100 nM. The same measure, in the same setting: for `COc1cccc(-c2cccc(NC(=O)c3nc4c(n3C)CCNC4)c2C#N)c1F` the value was at most 100 nM. The same measure, in the same setting: with `N#Cc1c(-c2ccc3c(c2)OCCO3)cccc1-c1nc2c(s1)CNCC2` the figure was at most 100 nM; with `Cc1c(-c2ccccc2)cccc1-c1nc2cc(CNCCO)c(OCc3ccccn3)cc2o1`, at most 10 nM; with `Cc1c(-c2ccc3c(c2)OCCO3)cccc1-c1nc2cc(CN3CCCC[C@H]3C(=O)O)c(OCC#N)cc2o1`, at most 10 nM. `Cc1c(-c2ccccc2)cccc1-c1nc2c(s1)CN(C)CC2`: in test [1], the IC50 was at most 100 nM. Consider `Cc1c(-c2ccccc2)cccc1-c1nc2c(CC#N)cc(CNCCO)cn2n1`, for which the IC50 in test [1] is at most 100 nM. For the molecule `Cc1c(-c2ccccc2)cccc1-c1nc2c(s1)CN(C[C@H](C)O)CC2`, the IC50 in test [1] was at most 100 nM. The molecule `Cc1c(-c2ccccc2)cccc1-c1nc2c(o1)CCN(C)C2` registered a half-maximal inhibitory concentration (IC50) in test [1] of at most 100 nM. On the same count and under the same terms, with `Cc1cc(CNCCO)cc2nc(-c3cccc(-c4ccccc4)c3C#N)oc12` the figure was at most 10 nM. Same read-out and setting: with `Cn1ncc2c(-c3cccc(NC(=O)c4nc5c(s4)CNCC5)c3C#N)cccc21` the figure was at most 100 nM; with `COc1cccc(-c2cccc(NC(=O)c3nc4c(s3)CNCC4)c2C#N)c1`, at most 100 nM; with `Cc1c(-c2ccccc2)cccc1-c1nc2cc(CNCCO)ccn2n1`, at most 100 nM. On the same count and under the same terms, with `Cc1c(NC(=O)c2nc3c(s2)CN(CCO)CC3)cccc1-c1ccccc1` the figure was at most 100 nM. In turn, `N#Cc1c(NC(=O)c2nc3c(s2)CNCC3)cccc1-c1ccccc1Cl` came in with an IC50 in test [1] of at most 100 nM. The same measure, in the same setting: for `COc1cccc(-c2cccc(NC(=O)c3nc4c(n3C)CCN(CCO)C4)c2C#N)c1F` the value was at most 100 nM; for `Cc1c(-c2ccccc2)cccc1-c1nc2c(Cl)cc(CNCCO)cn2n1`, at most 100 nM.
